Measured values reported in a melting point compilation (Tetko et al.; mined from patent text by program, amines drawn as free bases though some values may be those of a salt).

Row | Compound | melting point
1 | CC(C)(COc1ccc([N+](=O)[O-])cc1)c1ccccc1 | 79 to 80 °C
2 | COc1ccc2nc(Cl)cc(CCNC(C)=O)c2c1 | 162 to 164 °C
3 | COC(=O)Nc1nc(C)c(-c2nc3ccccc3c(=O)n2-c2ccccc2Cl)s1 | 243 to 245 °C
4 | COC(=O)NC(=S)Nc1cc(C(=O)c2ccccc2)ccc1NCc1ccccc1 | 75 to 79 °C
5 | CC(C)C1c2onc(-c3ccc(Cl)cc3)c2CCC1C(=O)O (stereo unspecified) | 180 to 182 °C
6 | N#Cc1ccc([C@H]2[C@@H]3C(=O)N(Cc4ccc5c(c4)OCO5)C(=O)[C@@H]3[C@@H]3CSCN32)cc1 (racemic) | 142 to 143 °C
7 | O=C(O)C=Cc1cccc(CCc2nc(-c3ccccc3)c(-c3ccccc3)o2)c1 | 114 to 115 °C
8 | Clc1ccc2c(c1)C(c1ccccc1Cl)=CCc1nncn1-2 | 189 to 190 °C
9 | O=C1c2ccccc2C(=O)N1CCSCc1nccc(NC(=S)NCC(F)(F)F)n1 | 178 to 179 °C
10 | CNc1nn(C(=O)NC(C)CCc2ccccc2Cl)c(=O)n1C (stereo unspecified) | 133 to 135 °C
11 | COC(=O)c1[nH]c2c(OCc3ccccc3)cc([N+](=O)[O-])c(CCCl)c2c1C(=O)OC | 122 to 128 °C
12 | Cc1nnc(N2C(=O)C(O)=C(C(=O)c3ccc(C(C)C)cc3)C2c2ccc(OC(F)(F)F)cc2)s1 (stereo unspecified) | 260 °C
13 | COC(=O)CC(=O)c1cc2cc(OC)c(OC)cc2s1 | 129 to 130 °C
14 | COc1cc(Nc2nc3cccc(-c4ccn[nH]4)c3o2)cc(OC)c1OC | 185 to 189 °C
15 | COC(=O)c1ccc2c(c1)c(Cc1ccc(C(=O)NS(=O)(=O)c3ccccc3C)cc1OC)cn2C | 185 to 187 °C
16 | CC(=O)SC(C)CC(=O)N1CCC[C@H]1C(=O)O (stereo partly specified) | 175 to 176 °C
17 | O=C(Cl)c1c2ccccc2nc2ccccc12 | 135 °C
18 | N#Cc1ccc(CN2CCCNC2=C[N+](=O)[O-])cn1 | 214 to 216 °C
19 | CCCn1c(=O)c2[nH]c(/C=C/c3cccc(F)c3)nc2n(CCC)c1=O | 265 to 266 °C
20 | CC(C)(C)c1ccc(-c2cc(-c3cccs3)[nH]n2)cc1 | 61 to 65 °C
21 | OC(COc1cccnc1)c1cccc(OCc2ccc3ccccc3n2)c1 (stereo unspecified) | 103 to 104 °C
22 | Cc1ccc([PH](=O)c2ccc(C)cc2)cc1 | 93.7 °C

Row | Compound | melting point
23 | CC(C)C(=O)N(CCCCCC(=O)O)C(c1ccccc1)c1ccccc1 | 106 to 107 °C
24 | CC(C)SC[C@@H](C[C@H](O)[C@H](CC1CCCCC1)C(=O)OC(C)(C)C)C(C)C | 107 to 108 °C
25 | COc1ccc(N2CCN(CCN3CC(C)(C)C3)C2=O)cc1Cl | 93 to 95 °C
26 | Cc1cc(-c2cccc(C(=O)CC(=O)Nc3cc(-c4ccc(F)cc4)ccc3NC(=O)OC(C)(C)C)c2)on1 | 100 to 101 °C
27 | Oc1ccc(C2=C(c3ccc(OCCCCCSCCCC(F)(F)C(F)(F)F)cc3)c3ccc(O)cc3CCC2)cc1 | 157 to 158 °C
28 | CC(c1ccccc1)C1(OC(=O)C(C)(C)C)C(=O)NC(=O)NC1=O (stereo unspecified) | 205 to 207 °C
29 | CCCCn1cc(C(=O)O)c(=O)c2cc(C)sc21 | 172 to 173 °C
30 | CC(C)(C)OC(=O)N1CCC(=Cc2ccc(F)cc2)CC1 | 69 to 70 °C
31 | Cc1ccc(N2CCN(c3ccc(C(C)(C)O)nc3-c3ccc(C(C)C)cc3)CC2)cc1 | 130 to 133 °C
32 | CC(C)(C)c1cc(C(=O)Nc2nc(C(N)=O)c(CCN3CC4CCC(CC4)C3)s2)cc(C(C)(C)C)c1O | 275 to 276 °C
33 | CC(C)(C)OC(=O)N1CCN2C[C@H](COc3ccc(F)cc3)CC[C@H]2C1 | 90 to 92 °C
34 | O=C(CC(=O)C(F)(F)F)c1ccc(-n2cccn2)cc1 | 96 °C
35 | CC(=O)NCc1ccc(C(C)(C)C(=O)O)cc1 | 166 to 169 °C
36 | O=C(Cc1noc2ccccc12)NS(=O)(=O)C1CC1 | 147 to 148 °C
37 | COc1ccc(-c2nn(C3CCCC3)c3c(C(F)(F)F)cccc23)c(OC)c1 | 79 to 80 °C
38 | CC=CCn1c(C)c(C)c2cnnc(OCc3ccccc3)c21 | 81 to 84 °C
39 | CS(=O)(=O)c1ccc(-c2cnn(CC(F)(F)F)c(=O)c2SC2CCCCC2)cc1 | 165 to 167 °C
40 | CC(CN(C(C)C)C(C)C)N1C(=O)C(=O)c2ccccc21 (stereo unspecified) | 70 to 71 °C
41 | C[N+]([O-])=C(Cn1cncn1)c1ccc(Cl)cc1 | 119 to 121 °C
42 | Nc1c2c(nc3ccccc13)CCCC2N1CCC(c2ccccc2)CC1 (stereo unspecified) | 189 to 190 °C
43 | O=C(O)COc1nnc(C(Cl)Cl)s1 | 114 °C
44 | Nc1cccc(-c2ccc(CCN3CCC4(CC3)NC(=O)N(CCc3ccccc3)C4=O)cc2)n1 | 176 to 180 °C

Other lines, results leading:

Row | melting point | Compound
45 | 78 to 79 °C | N#Cc1cnn(-c2c(Cl)cc(Cl)cc2Cl)c1Cl
46 | 214 to 217 °C | Cc1nc2c(N)nc3ccccc3c2n1CCOCCS(C)(=O)=O
47 | 175 to 177 °C | COc1ccccc1C1OC(=O)NC1=O (stereo unspecified)
48 | 44 to 52 °C | CC(C)(C)NSc1cnccn1
49 | 107 °C | COc1ccc(Oc2ccc(C(=O)N(C(C)C)C3CCCCC3)cc2)cc1OC
50 | 142 to 144 °C | C=CS(=O)(=O)NCc1ccc(C(N)=O)cc1
51 | 135 to 137 °C | CCNC(=O)C(C)Oc1ncn(-c2cccc(C(F)(F)F)c2)n1 (stereo unspecified)
52 | 48 to 49 °C | OC(CCc1nc(CCl)no1)c1ccc(-c2ccccc2)cc1 (stereo unspecified)
53 | 154 to 162 °C | COC(=O)Cn1c(C(=O)Nc2nc(-c3cc(OC)c(C)cc3OC)c(CCC3CCCCC3)s2)cc2cc(C)cc(C)c21
54 | 74 to 76 °C | CCOC(=O)CCc1ccc2c(CCC(=O)OCC)c(O)ccc2n1
55 | 180 to 182 °C | O=C(O)COc1cccc2c1CCc1sc(SCc3ccccc3)nc1-2
56 | 242 to 247 °C | CN1CCN(C(=O)c2ccc3cc(-c4csc(N(C)S(=O)(=O)c5ccccc5)n4)c(=O)[nH]c3c2)CC1
57 | 214 to 216 °C | O=C(O)c1cc(-c2ccccc2)ccc1O
58 | 175 to 177 °C | COc1cc(N(C(=O)[C@@H](N)Cc2cnc[nH]2)S(=O)(=O)c2ccc3c(ccn3C)c2)cc(OC)c1OC
59 | 205 to 206 °C | CN(C=C(S(=O)(=O)c1ccccc1)S(=O)(=O)c1ccccc1)c1ccc(Cl)cn1
60 | 123 to 125 °C | COCCN(CCOC)c1nc2cc(-c3ccc(Cl)cc3)nnc2c2ccccc12
61 | 162 to 164 °C | CN1CCC(NCc2ccccc2)(c2ccccc2)C(O)C1 (stereo unspecified)
62 | 223 to 224 °C | COC(=O)c1cc(OC)cc(-c2ccc(NC(C)=O)cc2)n1
63 | 113 to 114 °C | N#Cc1cccc2c1CCc1cc(C(F)(F)F)ccc1S2

Row | melting point | Compound
64 | 136 to 138 °C | CNC(=O)N1N=C(c2ccc(N)cc2)c2cc3c(cc2CC1CO)OCO3 (stereo unspecified)
65 | 119 to 122 °C | CCOC(=O)C1CCCc2[nH]c3c(C)ccc(OC)c3c21 (stereo unspecified)
66 | 198 °C | O=C(CCCCCCOc1ccc2c(c1)[nH]c1ccccc12)NO
67 | 182 °C | CCOC(=O)C1=C(C)NN=C(C(=O)O)C1c1cccc(Cl)c1 (stereo unspecified)
68 | 42 to 43 °C | COc1ccc(CCCCCCCC(=O)O)cc1
69 | 130 °C | CC(=O)Nc1ccccc1C(=O)C=Cc1ccncc1
70 | 85 to 87 °C | C=C(Br)CCC(=O)NC(C(=O)OCC)C(=O)OCC
71 | 168 to 169 °C | CCN(c1ccc(OC)cc1)S(=O)(=O)c1cccc(C(=O)Nc2ccc(C#N)cc2)c1
72 | 215 to 217 °C | CSc1nn2c(O)cc(CCl)nc2c1S(=O)(=O)c1ccccc1
73 | 94 to 95 °C | CCOC(=O)C1(C)C=C(O)c2c(sc3c2CCC2(C3)OCCO2)N1 (stereo unspecified)
74 | 176 to 178 °C | O=S(=O)(c1ccccc1)c1c[nH]c2ccc(Br)cc12
75 | 95 °C | N#CCc1ccc(OCc2ccccc2)c2c1OCCO2
76 | 89 to 90 °C | Cc1ccc(C2NC(C(=O)O)C(C)(C)S2)cc1 (stereo unspecified)
77 | 184 to 185 °C | CC(=O)Nc1ccc(O)c(C)c1C
78 | 121 °C | Cc1[nH]c2ccc(Cl)cc2c1C(C(=O)C1(Cl)C=CC=CC1)c1cc(=O)n(C2CCCCC2)[nH]1 (stereo unspecified)
79 | 185 to 187 °C | COc1cc(-c2n[nH]c3c2Cc2ccccc2-3)cc(OC)c1OC
80 | 162 °C | Cc1cc2c(NCc3ccc4c(c3)OCO4)nc(-n3ccnc3)nc2s1
81 | 185 °C | C=CCS(=O)(=O)c1cccnc1S(=O)(=O)NC(=O)Nc1nc(OC)cc(OC)n1
82 | 159 to 160 °C | Cc1nnc(-c2ccc3occ(-c4ccc5sccc5c4)c3c2)o1

Row | melting point | Compound
83 | 202 to 204 °C | Cn1nc(-c2ncc(N)nc2-c2ccccc2)ccc1=O
84 | 211 to 213 °C | Cn1c(COc2ccc(CC3SC(=O)NC3=O)cc2)nc2ccc(-c3ccccc3)nc21 (stereo unspecified)
85 | 166 to 167 °C | Cc1cc(C(=O)O)c(C)c2c1SCCC2(C)C
86 | 118 to 121 °C | Cc1cc(SC(C)C)c(NC(=O)CCCCCCSc2nc3ccccc3[nH]2)c(SC(C)C)n1
87 | 95 to 104 °C | CCCc1nc(C=NNC(=S)SC)c[nH]1
88 | 158 °C | COC(=O)c1ccc(NC(=O)c2sc3ccc(OC)cc3c2SC(C)C)cc1
89 | 221 to 222 °C | CCC(CC)(COc1nn2nc(C)nc2cc1C)CS(N)(=O)=O
90 | 222 to 223 °C | NS(=O)(=O)c1cc(C(=O)O)cc(OCc2ccsc2)c1-c1ccccc1
91 | 81 to 83 °C | CCOC(=O)C1Oc2cc(C=O)c(Cl)c(Cl)c2O1 (stereo unspecified)
92 | 63.8 °C | O=C(Cl)N1CCC(N2CCCCC2)CC1
93 | 94 to 96 °C | Cc1ccc(S(=O)(=O)On2nnc3ccc(Cl)cc32)cc1
94 | 139 to 141 °C | CC1(C(=O)O)Cc2ccccc2NC1=O (single isomer, unassigned; (+))
95 | 68.5 to 71.5 °C | CCCCCCc1ccc(C(=O)N2CCOCC2)cc1[N+](=O)[O-]
96 | 201 to 202 °C | COc1c(F)cc(F)c(OC)c1-c1ccc(C[C@H](NC(=O)c2c(Cl)cccc2Cl)C(=O)O)cc1
97 | 140 to 141 °C | CN(CCC(=O)Nc1ccc2[nH]ncc2c1)Cc1ccccc1
98 | 119 to 121 °C | CCOC(=O)c1cc(CC)sc1Nc1ccc(Cl)cc1N
99 | 130 °C | NCCc1cccc(N2C(=O)N(c3ccccc3Br)Cc3cnc(Nc4ccccc4)nc32)c1
100 | 92 to 93 °C | CC(=O)OCc1nc([N+](=O)[O-])c(C#N)n1C
101 | 125 to 126 °C | COc1cc(C=CC=O)ccc1OCc1nc(-c2ccco2)oc1C
